{
  "source": "patent US20070178494A1",
  "about": "“Methods for prediction and prognosis of cancer, and monitoring cancer therapy” (priority 2005, published 2007)",
  "key": {"VEGF": {"system": "VEGF", "test": "ELISA of plasma VEGF pre- and post-treatment, Phase III TARGETs study", "type": "in vivo, human", "settings": "patients with advanced renal cell cancer, after 3 weeks of treatment, p=3.2E-5"}, "[1]": {"system": "advanced renal cell cancer", "test": "Progression-free survival by baseline VEGF level, Phase III TARGETs study", "type": "in vivo, human", "settings": "patients receiving sorafenib", "description": "All analyses were carried out under IRB-approved protocols.\nMeasures of patient outcome found useful were time to death (TTD) and progression-free survival (PFS) using a Cox regression analysis. Baseline levels of VEGF were determined and changes in the baseline level were determined at week 18 of treatment. The effects observed were adjusted for age, gender, ECOG status or Motzer score. These adjustments were minimal."}},
  "data": [
    {"compound": "CNC(=O)c1cc(Oc2ccc(NC(=O)Nc3ccc(Cl)c(C(F)(F)F)c3)cc2)ccn1", "note": "[sorafenib]", "values": [
      {"measurement": "change of VEGF levels from baseline", "setting": "VEGF", "result": "increased significantly"},
      {"measurement": "difference in PFS between patients with high (>250 pg/mL) or low (<250 pg/mL) baseline VEGF levels", "setting": "[1]", "result": "no significant difference"}
    ]}
  ]
}
